For experiment [1], the system named is Rattus norvegicus. The experiment can be described thus: Antihypertensive activity in spontaneously hypertensive Rattus norvegicus (rat) assessed as reduced systolic blood pressure at 1 mg/kg intragastrically administered. The conditions noted are these: route intragastric. Format: functional, Artery.
Experiment [2] relates to Rattus norvegicus. The experiment can be described thus: Antihypertensive activity in spontaneously hypertensive Rattus norvegicus (rat) assessed as reduced systolic blood pressure at 2 mg/kg intragastrically administered measured at 20 hr post compound treatment (reference value: -2 +/- 4 mmHg). Format: functional, Artery. As to conditions: route intragastric.
In experiment [3] the test system is Rattus norvegicus. Briefly: Antihypertensive activity in spontaneously hypertensive Rattus norvegicus (rat) assessed as reduced systolic blood pressure at 2 mg/kg intragastrically administered measured at 8 hr post compound treatment (reference value: -3 +/- 3 mmHg). Format: functional, Artery. The conditions noted are these: route intragastric.
Experiment [4] concerns Rattus norvegicus. The experiment can be described thus: Antihypertensive activity in spontaneously hypertensive Rattus norvegicus (rat) assessed as reduced systolic blood pressure at 2 mg/kg intragastrically administered measured at 6 hr post compound treatment (reference value: -2 +/- 3 mmHg). The class given is functional, Artery. The conditions noted are these: route intragastric.

Experiment [5] relates to Rattus norvegicus. The experiment can be described thus: Antihypertensive activity in spontaneously hypertensive Rattus norvegicus (rat) assessed as reduced systolic blood pressure at 2 mg/kg intragastrically administered measured at 4 hr post compound treatment (reference value: -1 +/- 3 mmHg). The conditions noted are these: route intragastric. Format: functional, Artery.

Experiment [6] has as its system Rattus norvegicus. Briefly: Antihypertensive activity in spontaneously hypertensive Rattus norvegicus (rat) assessed as reduced systolic blood pressure at 2 mg/kg intragastrically administered measured at 2 hr post compound treatment (reference value: -1 +/- 2 mmHg). The class given is functional, Artery. The conditions noted are these: route intragastric.
Experiment [7] concerns Rattus norvegicus. The experiment can be described thus: Antihypertensive activity in spontaneously hypertensive Rattus norvegicus (rat) assessed as reduced systolic blood pressure at 2 mg/kg intragastrically administered measured at 1 hr post compound treatment (reference value: 1 +/- 3 mmHg). The conditions noted are these: route intragastric. The class given is functional, Artery.

Experiment [8] relates to Rattus norvegicus. Briefly: Antihypertensive activity in spontaneously hypertensive Rattus norvegicus (rat) assessed as reduction in systolic blood pressure compound intragastrically administered measured at 1 to 20 hr post compound treatment. Format: functional, organism-based. As to conditions: Artery.
Experiment [9] relates to Rattus norvegicus. Briefly: Antihypertensive activity in spontaneously hypertensive Rattus norvegicus (rat) assessed as reduced systolic blood pressure at 1 mg/kg intragastrically administered measured at 6 hr post compound treatment (reference value: -2 +/- 3 mmHg). Format: functional, Artery. The conditions noted are these: route intragastric.
Experiment [10] concerns Rattus norvegicus. Briefly: Antihypertensive activity in spontaneously hypertensive Rattus norvegicus (rat) assessed as reduced systolic blood pressure at 1 mg/kg intragastrically administered measured at 4 hr post compound treatment (reference value: -1 +/- 3 mmHg). The class given is functional, Artery. The conditions noted are these: route intragastric.
Experiment [11] relates to Rattus norvegicus. Briefly: Antihypertensive activity in spontaneously hypertensive Rattus norvegicus (rat) assessed as reduced systolic blood pressure at 1 mg/kg intragastrically administered measured at 2 hr post compound treatment (reference value: -1 +/- 2 mmHg). The class given is functional, Artery. The conditions noted are these: route intragastric.
The subject of experiment [12] is Rattus norvegicus. Briefly: Antihypertensive activity in spontaneously hypertensive Rattus norvegicus (rat) assessed as reduced systolic blood pressure at 1 mg/kg intragastrically administered measured at 1 hr post compound treatment (reference value: 1 +/- 3 mmHg). Format: functional, Artery. As to conditions: route intragastric.
The test system of experiment [13] is Rattus norvegicus. Briefly: Antihypertensive activity in spontaneously hypertensive Rattus norvegicus (rat) assessed as reduced systolic blood pressure at 0.5 mg/kg intragastrically administered measured at 1 hr post compound treatment (reference value: 1 +/- 3 mmHg). Format: functional, Artery. The conditions noted are these: route intragastric.

The text below walks through data of ChEMBL document CHEMBL3044564, “Synthesis and antihypertensive activity evaluation in spontaneously hypertensive rats of lacidipine analogues” (2012).

With `CCOC(=O)C1=C(C)NC(C)=C(C(=O)OCC)C1c1ccccc1/C=C/C(=O)N1CCCCC1`, the Activity in the experiment on Rattus norvegicus [1] is listed as 22 mmHg.
For the compound `CCOC(=O)C1=C(C)NC(C)=C(C(=O)OCC)C1c1ccccc1/C=C/C(=O)NC(C)(C)C`, the Activity with Rattus norvegicus [1] is 44 mmHg.
Still for that read-out and setting: under `CCOC(=O)C1=C(C)NC(C)=C(C(=O)OCC)C1c1ccccc1/C=C/C(=O)NCC(C)C` stands 15 mmHg.
In the case of `CCOC(=O)C1=C(C)NC(C)=C(C(=O)OCC)C1c1ccccc1/C=C/C(=O)N(C)C(C)(C)C`, the Activity with Rattus norvegicus [2] turned out to be 25 mmHg; in the experiment with Rattus norvegicus [3], 43 mmHg; in the experiment with Rattus norvegicus [4], 45 mmHg; with Rattus norvegicus [5], 47 mmHg; with Rattus norvegicus [6], 53 mmHg; in the experiment on Rattus norvegicus [7], 44 mmHg. Moreover, the Activity result in the experiment with Rattus norvegicus [8] was “Dose-dependent effect”; in the experiment on Rattus norvegicus [9] it was 3 mmHg; in the experiment with Rattus norvegicus [10], 20 mmHg; with Rattus norvegicus [11], 34 mmHg; in the experiment on Rattus norvegicus [12], 46 mmHg; in the experiment on Rattus norvegicus [13], 11 mmHg. In the experiment on Rattus norvegicus [1], the Activity is on record as 46 mmHg.
Turning to `CCOC(=O)C1=C(C)NC(C)=C(C(=O)OCC)C1c1ccccc1/C=C/C(=O)N(CC)CC`, the Activity in the experiment on Rattus norvegicus [1] came out at 33 mmHg.
With `CCCCN(C)C(=O)/C=C/c1ccccc1C1C(C(=O)OCC)=C(C)NC(C)=C1C(=O)OCC`, the Activity in the experiment on Rattus norvegicus [1] came out at 27 mmHg.
Same read-out and setting: for `CCOC(=O)C1=C(C)NC(C)=C(C(=O)OCC)C1c1ccccc1/C=C/C(=O)OC(C)(C)C` [LACIDIPINE] the value was 50 mmHg.
